Measured values taken from patent US5679673A (priority 1994, dated 1997).

Assays:
[1] = system: NMDA receptor; conditions: C. Carter et al, J. Pharm Exp. Ther., 1988; cited from earlier work
[2] = target: T1, sigma receptor (Cavia porcellus, UniProt Q60492); test: Radioreceptor assay: displacement of [3H](+)-pentazocine from guinea pig brain membranes; format: binding; conditions: [3H](+)-pentazocine 3 nM, guinea pig brain crude P2 membranes, pH 8.0, 120 min, 25° C.; average of 2-4 experiments; from IC50 by Cheng-Prusoff; read-out: Ki ([3H] (+) -Pent)
T1 construct: crude synaptosomal (P2) membrane fraction of guinea pig brain; tissue Pel-Freeze (frozen guinea pig brains); host or cells: guinea pig brain minus cerebella, crude P2 membranes

[3] = system: sigma receptor; conditions: de Costa et al, J. Med. Chem. 1989 and further structure activity studies; cited from earlier work

T1 sequence (Q60492 whole entry): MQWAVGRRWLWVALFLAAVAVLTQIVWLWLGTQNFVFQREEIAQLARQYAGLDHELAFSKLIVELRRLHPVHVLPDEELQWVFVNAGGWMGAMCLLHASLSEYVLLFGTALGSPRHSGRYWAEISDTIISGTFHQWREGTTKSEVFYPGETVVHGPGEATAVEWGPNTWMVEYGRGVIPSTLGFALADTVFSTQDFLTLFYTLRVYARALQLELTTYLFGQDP

## 1-(4-chlorophenyl)-2-[1-(4-fluorophenyl)-piperidinyl]ethanol
[1]
  NMDA receptor antagonism: non-competitive NMDA receptor antagonists

## Clc1ccc(CCN2CCN3CCC2CC3)cc1Cl [Compound of Ex. 5, 4-[2-(3,4-Dichlorophenyl)ethyl]-1,4-diazabicyclo[2.2.3]nonane]
[2]
  Ki: 125 nM

## CC(C(O)c1ccc(O)cc1)N1CCC(Cc2ccccc2)CC1 (centres unmarked) [ifenprodil]
[1]
  NMDA receptor antagonism: non-competitive NMDA receptor antagonists

## CN(CCc1ccc(Cl)c(Cl)c1)[C@@H]1CCCC[C@@H]1N1CCCC1 (single isomer, unassigned) [(-)-cis-N-[3,4-dichlorophenylethyl]-N-methyl-2-(1-pyrrolidinyl)-cyclohexylamine]
[3]
  sigma receptor ligand: extremely potent and selective ligands for the sigma receptor

## CN(CCc1ccc(Cl)c(Cl)c1)[C@@H]1CCCC[C@@H]1N1CCCC1 (single isomer, unassigned) [(+)-cis-N-[3,4-dichlorophenylethyl]-N-methyl-2-(1-pyrrolidinyl)-cyclohexylamine]
[3]
  sigma receptor ligand: extremely potent and selective ligands for the sigma receptor
